Results published in PMC9608995 (Pharmaceutics, 2022).
Marks after values point to notes of the source that are not given here.

Assays:
[1] = cited from earlier work
[2] = Oral pharmacokinetics in rats, LC-MS/MS, non-compartmental analysis; settings: male, Wistar, rat, 12.5 mg/kg
Protocol: Twelve male Wistar rats (120–150 g), procured from the animal facility of the Research Institute of Ophthalmology (Giza, Egypt), were arbitrarily allocated into two groups of six rats each. The polyacrylic cages, which the rats were lodged in, were maintained under controlled temperature (22 ± 2 °C) and relative humidity (55 ± 5%), in the presence of day and night cycled over 12 h intervals. The animals were provided with tap water ad libitum and standard forage till the night before dosing was commenced so that a 12 h starvation period was allowed. […] Next, centrifugation at 4000 rpm was directly applied to the tubes for 10 min in order to collect plasma. The isolated plasma samples were stored at −20 °C pending assay. The current study was reviewed and approved by our institutional Animal Ethics Committee of Beni-Suef University (protocol approval code: REC-A-PhBSU-20015).
A liquid chromatography–tandem mass spectrometry (LC–MS/MS) method was employed to assay the gathered plasma samples for PRZ. An Agilent eclipse C18 column (Agilent Technologies, Santa Clara, CA, USA) with the dimensions of 3.5 µm × 4.6 mm × 100 mm was employed for chromatographic separation utilizing the isocratic elution technique. The mobile phase, consisted of methanol and 0.1% formic acid (85:15, v/v), was delivered at a flow rate of 0.8 mL/min (split ratio 1/1). A sample injection volume of 10 µL was utilized. The temperatures of the column and autosampler oven were set to 40 °C and 15 °C, respectively. Electrospray ionization (ESI) in the positive mode was used for the operation of the mass spectrometer. Nitrogen was employed as the auxiliary and nebulizer gas. Source temperature, nebulizer gas, curtain gas and heater gas (i.e., the principal operation parameters) were adjusted at 500 °C, 60 psi, 25 psi and 60 psi, respectively. The ion spray voltage was tuned at 5500 V. Entrance potential, declustering potential, collision energy and collision exit potential (i.e., the compound parameters) were 10, 130, 15, 20 V for PRZ and 10, 91, 29, 12 V for diazepam as an internal standard (IS), respectively. Quantification was performed in the multiple reactions monitoring mode with m/z 313.18 → 203.10 for PRZ and m/z 285.31→193.00 for IS. Operation of the detector was at 1900 V. Analytical data processing was carried out through Analyst software (Version 1.4.2, Applied Biosystems, MDS SCIEX, Concord, ON, Canada).
A procedure based on liquid–liquid extraction was utilized. Briefly, to a plasma sample (100 µL), 10 µL of IS solution (50 ng/mL) was spiked and 1 mL of methyl-ter-butyl ether was added. The mixture was vortexed for 30 s to ensure homogeneity and then centrifugation at 3000 rpm was applied for 10 min. Into a conical glass tube, the transparent supernatant was transmitted and left at ambient temperature until the organic layer was entirely evaporated. The residues resulting from the evaporation process were then dissolved in the mobile phase and 10 µL of the solution was subsequently injected through the autosampler.
The non-compartmental pharmacokinetic analysis function built into the Excel Add-In software, PK Solver, was employed to analyze the time course of the PRZ concentration in rat plasma for estimation of pharmacokinetic parameters. The software assesses the maximal drug concentration (Cmax, ng/mL) and elapsed time to attain such concentration (Tmax, h) directly from the plasma concentration–time curve. The software adopts the trapezoidal rule method for quantifying the area under the curve (AUC) from 0 to t (AUC0–t, ng h/mL) and from 0 to infinity (AUC0–∞, ng h/mL).

H. nana eggs = assay: In vitro ovicidal activity, Fuchsin vital stain; format: cell-based, Hymenolepis nana; settings: PRZ-PMMs finding at 50 µg/mL
Protocol: Three tubes for each concentration of each formulation were prepared. On clean glass slides, 100 µL of eggs of the different treatments were added and stained with 20 µL of freshly prepared Fuchsin for 10 min and examined under a light microscope.

[3] = cited from earlier work; remark: listed apart in the source
H. nana [4] = assay: Fecal egg count and egg reduction in H. nana-infected rats; format: in vivo, Hymenolepis nana; settings: for Percentage reduction of egg count: 1st and 3rd day after treatment; for Mean egg count, 1st day after treatment / Mean egg count, 3rd day after treatment: fecal egg count per gram (EPG), n = 10
Source text: (§1) Mature H. nana worms were gathered from naturally-infected Mus musculus and kept in outbred rats. Thereafter, collection of the eggs was executed from infected rats that were euthanized on day 16th post infection. Infectious shell-free eggs were produced from the gravid segments of adult worms via agitating the egg suspension with 3 mm-diameter glass beads shortly prior to use.
(§2) The rats were males weighing 120–150 g and were free of parasitic infections. The rats were housed in a specific pathogen-free environment under standard conditions (22 ± 2 °C and 50–60% humidity) and were supplied food and water ad libitum. Rats of groups I-V were inoculated with shell-free eggs via the oral route using a stomach tube. Each animal received 3000 eggs in 0.1 mL of PBS pH 7.4. At day 16th post infection, a fecal examination was carried out and egg count per gram was detected using the McMaster technique. Group I was used as the infected non-treated control group. […] Animals of group VI were used as the non-infected non-treated control group. […] All procedures for agent administration, blood and tissue manipulation were in accordance with the Guide for the Care and Use of Laboratory Animals (8th edition) published in 2011 by the United States National Academy of Sciences.
Fecal egg count per gram (EPG) was estimated in the different groups on day 21 and 23 of the experiment. Fecal egg reduction percentage was calculated based on the formula [34]: Fecal egg reduction percentage=EPG before treatment−EPG post treatment/EPG before treatment×100

[5] = In vitro release, membrane diffusion procedure, with kinetic model fitting; format: physicochemical; settings: PBS pH 7.4 with 0.2% w/v SLS, 37 °C
Protocol: In triplicate, the release behavior of PRZ from the assembled PMMs was investigated utilizing a type 1, SR 8 Plus USP dissolution tester apparatus (Hanson Research, Chatsworth, Los Angeles, CA, USA) employing the membrane diffusion procedure. […] For establishing the sink condition, 70 mL of phosphate-buffered saline (PBS) comprising 0.2% w/v sodium lauryl sulfate (SLS) was used as the release milieu after adjusting the pH to 7.4 and setting the temperature to 37 ± 0.5 °C [27]. After fixing the filled cylinders to the USP dissolution apparatus shafts, a revolving speed of 50 rpm was applied. About 1-mL aliquots were intermittently pulled out after 0.5, 1, 2, 4, 6, 8, 12 and lastly after 24 h as prescheduled time intervals. In order to maintain the volume of the dissolution milieu at a fixed level, each aspiration was recompensed with a fresh milieu. After applying the appropriate dilution, a spectrophotometer set at λmax 263 was used to quantify PRZ in the collected samples. Afterwards, PRZ accumulative % released, as mean (±SD) values, was graphed versus time. An analogous experimentation was conducted on 2 mL of 1.5 mg/mL free PRZ aqueous suspension for comparative purposes. […] Amplification of the coefficient of determination (R^2) made the grounds for picking the most appropriate arithmetic model.

H. nana [6] = assay: Worm burden and worm reduction in H. nana-infected rats; format: in vivo, Hymenolepis nana; settings: for Percentage reduction of worm count: rats; for Worm count: worm numbers per rat, 23rd day, n = 10
Source text: as §1, §2
On the 23rd day of the experiment, the rats were euthanized and the small intestines were removed. The small intestines were longitudinally dissected and the worm burdens were assessed.

H. nana [7] = assay: Intestinal histopathology (H&E) in H. nana-infected rats; format: in vivo, Hymenolepis nana
Protocol: as §2
Intestines of rats from different groups were gathered and instantly fixed for 24 h in neutrally buffered 10% formalin. Wet tissue sections were dehydrated through a series of alcohols and embedded in paraffin. Serial 4 μm thick cuts were made on all paraffin blocks by rotatory microtome. Thereafter, the cuts were fixed on glass slides and the paraffin was removed. […]

[8] = single oral dose 25 mg/kg, 25 mg/kg
[9] = single oral dose 25 mg/kg, listed as crude PRZ, 25 mg/kg

## O=C(C1CCCCC1)N1CC(=O)N2CCc3ccccc3C2C1 (stereo not shown) [Crude PRZ, praziquantel]
[1]
  Terminal half-life: 1 to 1.5 h
[2]; in vivo
  half-life: 1.11 ± 0.04 h
[2]; po
  AUC(0-inf): 566 ± 102 ng·h/mL
  AUC(0-t): 390 ± 95.3 ng·h/mL
  Cmax: 290 ± 28.5 ng/mL
  MRT: 3.05 ± 0.46 h
  Tmax: 0.24 ± 0.03 h
  k el: 0.000173 s⁻¹
H. nana eggs
  Morphological changes of the eggs: mild shell deformities and embryo damage
[3]
  Intrinsic hydrosolubility: ~ 0.3 mg/mL
H. nana [4]; single oral dose 12.5 mg/kg
  Percentage reduction of egg count: 90.6–91.1%
  Mean egg count, 1st day after treatment: 1033.20 ± 40.83 ^a,b,d,e
  Mean egg count, 3rd day after treatment: 966.60 ± 40.83 ^a,b,d,e
H. nana [4]; single oral dose 12.5 mg/kg, 21st day
  Reduction of eggs output in feces: 90.6%
H. nana [4]; single oral dose 12.5 mg/kg, 23rd day
  Reduction of eggs output in feces: 91.1%
H. nana [4]; [8]
  Percentage reduction of egg count: 100%
H. nana [4]; [9]
  Percentage reduction of egg count: 100%
H. nana [4]; single oral dose 25 mg/kg
  Mean egg count, 1st day after treatment: 0.00 ± 0.00 ^a,c
  Mean egg count, 3rd day after treatment: 0.00 ± 0.00 ^a,c
[5]
  Accumulative % released at 1 h: 98.81 ± 5.94%
H. nana [6]; single oral dose 12.5 mg/kg, 12.5 mg/kg
  Percentage reduction of worm count: 73.3%
H. nana [6]; single oral dose 12.5 mg/kg, listed as crude PRZ, 12.5 mg/kg
  Percentage reduction of worm count: 73.3%
H. nana [6]; [8]
  Percentage reduction of worm count: 100%
H. nana [6]; [9]
  Percentage reduction of worm count: 100%
H. nana [6]; single oral dose 12.5 mg/kg
  Worm count: 16.60 ± 1.14 ^a,b,d,e
H. nana [6]; single oral dose 25 mg/kg
  Worm count: 0.00 ± 0.00 ^a
H. nana [7]; 12.5 mg/kg oral
  Intestinal histopathology, parasitic sections: submucosal granulomatous reaction in association with the detected parasitic sections
H. nana [7]; 25 mg/kg oral
  Intestinal histopathology, parasitic sections: no parasitic sections
